The record followed here is article PMC9032718, “Eltrombopag as an Allosteric Inhibitor of the METTL3-14 Complex Affecting the m^6A Methylation of RNA in Acute Myeloid Leukemia Cells” (Pharmaceuticals, 2022).

In general, GI50 refers to the concentration at which growth is held to half of that of the control. A lower GI50 goes with greater sensitivity of the cells. What is called remaining activity is the signal under treatment as a percentage of the control signal. Low readings indicate little activity left, high ones much activity left. One may read the Kd as the concentration at which binding is half-saturated. As usually defined, the inhibition is the percentage by which the read-out fell short of the control.

One test concerns MV4-11 cells. Description: Anti-proliferative assay (EZ-cytox), MV4-11. In kind it is cell-based. As to conditions: Homo sapiens, MV4-11, 72 h. The protocol:
(§1) The MOLM-13, MOLM-14, HL60, MV4-11, and THP-1 cells were seeded in white 96-well clear bottomed plates with 100 μL of medium (5000 cells/well). The plated cells were treated with serially diluted compounds and incubated for 72 h at 37 °C. After incubation, 10 μL of EZ-cytox kit reagent from the EZ-cytox cell viability assay kit (DaeiLab, Seoul, Korea) was added to each well and then incubated for 3 h at 37 °C. The absorbance of metabolically active cells was measured at a wavelength of 450 nm using a Victor multilabel reader (PerkinElmer). The GI50 values were calculated by nonlinear regression analysis using OriginPro 9.1 software (OriginLab).

Another test deals with T1, MLL4 complex (Homo sapiens, UniProt Q9UMN6).
T1 construct: purchased Reaction Biology (Malvern, PA, USA), contract assay
Description: Methyltransferase selectivity panel (MT HotSpot radioisotope assay), MLL4 complex. The conditions noted are these: 10 μM eltrombopag. The format is biochemical. The protocol: The selectivity profile of eltrombopag was investigated by testing the level of inhibition in a methyltransferase panel. The inhibition of 7 […] methyltransferase was tested at Reaction Biology (Malvern, PA, USA) using a gold standard radioisotope-based MT assay (MT HotSpot^TM) with 10 μM of eltrombopag in duplicate.

The subject of a further test is HL60 cells. Description: Anti-proliferative assay (EZ-cytox), HL60. In kind it is cell-based. The conditions noted are these: Homo sapiens, HL-60, 72 h. The protocol: as §1
Test [1] relates to MOLM-13 cells. The test is described as follows: Anti-proliferative assay (EZ-cytox), MOLM-13. The format is cell-based. As to conditions: Homo sapiens, MOLM-13, 72 h. The procedure: as §1
Test [2] has as its target T2, METTL3-14 complex (Homo sapiens, UniProt Q86U44).
T2 construct: genes encoding the full-length and MTase domain of human METTL3; METTL3-14 FL: full length of METTL3-14; 10x His (thrombin-cleavable) (cleaved yes); made in house; host or cells: Trichoplusia ni (Hi5) cells co-infected with two baculoviruses (virus made in Sf9)
The test is described as follows: Surface plasmon resonance binding to METTL3-14. As to conditions: SPR. The protocol: The interaction between eltrombopag and the METTL3-14 complex was explored using a Reichert […] instrument optical biosensor (Reichert Technologies, Depew, NY, USA) equipped with a carboxymethyl dextran sensor chip (part no. 13206066, Reichert Technologies). To activate the sensor chip, free carboxyl groups on the surface were modified by injecting a mixture of 0.1 M of 1-ethyl-3-(3-dimethylaminopropyl) carbodiimide hydrochloride and 0.05 M of N-hydroxysuccinimide at a flow rate of 10 μL/min to generate a reactive succinimide ester surface. […] The binding experiments were performed using a flow rate of 30 μL/min with an association time of 5 min and a dissociation time of 7 min. The regeneration of the surfaces was performed, when necessary, by 10 mM of NaOH. The Langmuir model of the Scrubber2 software was used to determine the equilibrium dissociation constant and kinetic dissociation and association constants.
On the technique in general: SPR reads the build-up and loss of mass on a sensor chip optically.

Test [3] has as its target T2, METTL3-14 complex. Description: METTL3-14 enzyme-based bioluminescence assay (screening assay). In kind it is biochemical. As to conditions: IC50 not affected by SAM 50-1600 nM or RNA 25-800 nM. The procedure:
An enzymatic bioluminescence assay was established to identify the METTL3-14 inhibitor through screening. […] METTL3-14 activity was assessed by measuring the luminescence using a Victor multilabel reader (PerkinElmer, Waltham, MA, USA). The IC50 values were calculated by a nonlinear regression analysis using OriginPro 9.1 software (OriginLab).
To confirm the mechanism of action of eltrombopag in the METTL3-14 complex, 30 nM METTL3-14 and serially diluted eltrombopag were reacted with various concentrations of SAM or RNA substrate and saturating concentrations of the other substrate (3 μM SAM or 2 μM RNA substrate) for 20 min. To evaluate the inhibitory activity in a single form of METTL3 and METTL14, 1 μM of METTL3 and 300 nM of METTL14 were incubated with 1 μM of SAM, 500 nM of RNA substrates, and serially diluted eltrombopag for 5 h. To measure the inhibitory activity in the truncated form of the METTL3-14 complex, 1 μM of the truncated METTL3-14 complex was reacted with 1 μM of SAM, 500 nM of RNA substrates, and serially diluted eltrombopag for 5 h.

Test [4] deals with MOLM-13 cells. Description: Combinatorial analysis of AML drugs with eltrombopag (EZ-cytox, Synergyfinder). The format is cell-based. The conditions noted are these: Homo sapiens, MOLM-13; for inhibition at 1.5 µM: MOLM-13, eltrombopag alone 1,500 nM; for inhibition at 3 µM: MOLM-13, eltrombopag alone 3,000 nM; for inhibition at 6 µM: MOLM-13, eltrombopag alone 6,000 nM; for inhibition at 12 µM: MOLM-13, eltrombopag alone 12,000 nM. The protocol: The MOLM-13 cells were seeded in white 96-well clear bottomed plates with 50 μL of medium (5000 cells/well). The plated cells were treated with serially diluted eltrombopag and current AML drugs, including venetoclax, cytarabine, gilteritinib, and sorafenib, to a final volume of 100 μL and incubated for 72 h at 37 °C. After incubation, 10 μL of EZ-cytox kit reagent from the EZ-cytox cell viability assay kit (DaeiLab) was added to each well and then incubated for 3 h at 37 °C. The absorbance of metabolically active cells was measured at a wavelength of 450 nm using a Victor multilabel reader (PerkinElmer). The synergy scores of each combination were quantified by the HAS model, ZIP model, Loewe additivity model, and Bliss independence models using Synergyfinder software. Positive or negative synergy scores obtained through these models represent synergy and antagonism, respectively.

T2 sequence (Q86U44 whole entry, the tested form may be a part): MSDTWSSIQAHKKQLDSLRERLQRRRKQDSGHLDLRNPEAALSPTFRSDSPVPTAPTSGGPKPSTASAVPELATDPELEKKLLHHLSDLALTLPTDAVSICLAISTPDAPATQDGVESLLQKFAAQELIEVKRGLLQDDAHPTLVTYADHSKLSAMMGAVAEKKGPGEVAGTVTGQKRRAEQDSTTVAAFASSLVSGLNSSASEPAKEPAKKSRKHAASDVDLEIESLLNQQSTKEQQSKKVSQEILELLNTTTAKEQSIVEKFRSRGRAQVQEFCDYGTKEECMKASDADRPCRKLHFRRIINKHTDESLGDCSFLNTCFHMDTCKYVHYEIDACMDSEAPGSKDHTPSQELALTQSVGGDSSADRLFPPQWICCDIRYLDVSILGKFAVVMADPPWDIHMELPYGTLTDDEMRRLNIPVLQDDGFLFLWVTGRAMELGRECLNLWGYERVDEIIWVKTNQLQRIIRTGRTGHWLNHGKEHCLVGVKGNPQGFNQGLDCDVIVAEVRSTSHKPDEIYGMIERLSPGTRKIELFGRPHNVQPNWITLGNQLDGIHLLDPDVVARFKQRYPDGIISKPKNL
T2 sequence (Q9HCE5 whole entry partner, the tested form may be a part): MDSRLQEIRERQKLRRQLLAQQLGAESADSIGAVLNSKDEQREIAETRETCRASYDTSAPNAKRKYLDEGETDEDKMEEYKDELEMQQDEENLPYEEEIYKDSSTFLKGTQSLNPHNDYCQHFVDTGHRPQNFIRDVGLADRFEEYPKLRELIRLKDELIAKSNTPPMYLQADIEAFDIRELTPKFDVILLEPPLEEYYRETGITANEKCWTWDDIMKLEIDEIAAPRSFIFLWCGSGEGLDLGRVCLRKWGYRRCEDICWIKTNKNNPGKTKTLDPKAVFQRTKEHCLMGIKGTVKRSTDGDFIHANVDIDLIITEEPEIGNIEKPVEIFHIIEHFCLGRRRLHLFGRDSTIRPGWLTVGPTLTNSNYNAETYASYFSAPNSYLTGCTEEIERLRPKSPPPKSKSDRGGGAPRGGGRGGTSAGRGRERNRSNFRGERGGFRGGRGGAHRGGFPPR

For the compound `CC1=NN(c2ccc(C)c(C)c2)C(=O)/C1=N\Nc1cccc(-c2cccc(C(=O)O)c2)c1O` [Eltrombopag], it took 14.3 ± 0.1 µM to inhibit growth with MV4-11 cells by half (GI50). In addition, the remaining activity at 10 µM at MLL4 complex was determined as 70.9 ± 2.4%. In the test on HL60 cells, this compound came in with a GI50 of 12.9 ± 0.9 µM. Also, the GI50 with MOLM-13 cells [1] was determined as 8.28 µM. Besides, the “Ka (kinetic association constant)” value on METTL3-14 complex [2] is 492(4). Further, the Kd on METTL3-14 complex [2] (Langmuir model, read-out: KD (equilibrium dissociation constant)) was determined as 13.2 µM. The “mode of enzyme inhibition” value on METTL3-14 complex [3] was “noncompetitive inhibitor”. In addition, in the test on MOLM-13 cells [4] (cytarabine matrix (panel C)), the inhibition at 1.5 µM amounted to 9.02 ± 5.05%, the inhibition at 3 µM stood at 24.8 ± 2.76%, the inhibition at 6 µM came out at 61.6 ± 1.03% and the inhibition at 12 µM worked out at 93.83 ± 0.61%. Besides, in the test on MOLM-13 cells [4] (venetoclax matrix (panel A)), the inhibition at 1.5 µM worked out at 13 ± 2.13%, the inhibition at 3 µM was found to be 30 ± 5.01%, the inhibition at 6 µM is 69.4 ± 2.33% and the inhibition at 12 µM stood at 94.91 ± 0.86%.
